Experimental findings from US6673039B1, “Compositions, kits, methods, and apparatus for transvascular delivery of a composition to an extravascular tissue of a mammal” (Trustees of the University of Pennsylvania, priority 1997, dated 2004) are described below.

This assay relates to skeletal muscle capillaries. In words: Microvascular perfusion viewed in real time through a dissecting microscope after topical application. The assay is classed as in vivo, mouse. The source says: Newborn mice pups were anesthetized after feeding to ensure a stomach filled with milk, for the purpose of providing optical contrast. […] Histamine, papaverine, or both, dissolved in PBS, were applied topically to the capillaries. Video recordings were made against a time line with an attached camera.

For the molecule `NCCc1c[nH]cn1` [histamine], the “effect on microvascular perfusion” value (10 millimolar) was “rapidly induced vasodilation, and was followed within seconds by progressive capillary stasis”.
On to `COc1ccc(Cc2nccc3cc(OC)c(OC)cc23)cc1OC` [papaverine], for which, for the setting “300 micrograms per milliliter”, the “effect on microvascular perfusion” value is “capillary recruitment and increased local perfusion”.
